In brackets after ≈: the same amount, converted by molar mass.
Columns and labels:
Streptococcus pneumoniae [1] = test: Antibacterial activity against penicillin-resistant Streptococcus pneumoniae 08-2; type: functional
[2] = test system: Acinetobacter calcoaceticus; test: Antibacterial activity against Acinetobacter calcoaceticus 25001; type: functional
Staphylococcus aureus [3] = test: Antibacterial activity against methicillin-sensitive Staphylococcus aureus 08-49; type: functional
Klebsiella pneumoniae = test: Antibacterial activity against Klebsiella pneumoniae ATCC 700603; type: functional
Enterococcus faecalis [4] = test: Antibacterial activity against Enterococcus faecalis ATCC 51299; type: functional
Shigella sonnei = test: Antibacterial activity against Shigella sonnei 51592; type: functional
[5] = test system: Staphylococcus epidermidis; test: Antibacterial activity against methicillin-sensitive Staphylococcus epidermidis 08-17; type: functional
Pseudomonas aeruginosa = test: Antibacterial activity against Pseudomonas aeruginosa 17; type: functional
Escherichia coli [6] = test: Antibacterial activity against Escherichia coli ATCC 25922; type: functional
Enterococcus faecalis [7] = test: Antibacterial activity against vancomycin-resistant Enterococcus faecalis EFL1004; type: functional
Morganella morganii = test: Antibacterial activity against Morganella morganii 49086; type: functional
Proteus vulgaris = test: Antibacterial activity against Proteus vulgaris 56; type: functional
Providencia rettgeri = test: Antibacterial activity against Proteus rettgeri 49006; type: functional
Streptococcus pneumoniae [8] = test: Antibacterial activity against Streptococcus pneumoniae ATCC 6301; type: functional
Enterobacter cloacae = test: Antibacterial activity against Enterobacter cloacae 45301; type: functional
[9] = test system: Staphylococcus epidermidis; test: Antibacterial activity against Staphylococcus epidermidis ATCC 12228; type: functional
Staphylococcus aureus [10] = test: Antibacterial activity against methicillin-resistant Staphylococcus aureus 08-52; type: functional
Salmonella typhi = test: Antibacterial activity against Bacillus typhi 50035; type: functional, Salmonella enterica subsp. enterica serovar Typhi; settings: Salmonella enterica
Escherichia coli [11] = test: Antibacterial activity against Extended spectrum beta-lactamase producing Escherichia coli 08-5; type: functional
Klebsiella aerogenes = test: Antibacterial activity against Enterobacter aerogenes 45102; type: functional
Streptococcus pyogenes = test: Antibacterial activity against Streptococcus pyogenes 556; type: functional
Serratia marcescens = test: Antibacterial activity against Serratia marcescens 41002; type: functional
Staphylococcus aureus [12] = test: Antibacterial activity against Staphylococcus aureus ATCC 13709; type: functional
[13] = test system: Staphylococcus epidermidis; test: Antibacterial activity against methicillin-resistant Staphylococcus epidermidis 08-18; type: functional
[14] = Cytotoxicity against african green monkey Vero cells after 24 hrs; type: cell-based; settings: chlorocebus sabaeus

Compound | MIC (Streptococcus pneumoniae [1]) [µg/mL] | MIC [2] [µg/mL] | MIC (Staphylococcus aureus [3]) [µg/mL] | MIC (Klebsiella pneumoniae) [µg/mL] | MIC (Enterococcus faecalis [4]) [µg/mL] | MIC (Shigella sonnei) [µg/mL] | MIC [5] [µg/mL] | MIC (Pseudomonas aeruginosa) [µg/mL] | MIC (Escherichia coli [6]) [µg/mL] | MIC (Enterococcus faecalis [7]) [µg/mL] | MIC (Morganella morganii) [µg/mL] | MIC (Proteus vulgaris) [µg/mL] | MIC (Providencia rettgeri) [µg/mL] | MIC (Streptococcus pneumoniae [8]) [µg/mL] | MIC (Enterobacter cloacae) [µg/mL] | MIC [9] [µg/mL] | MIC (Staphylococcus aureus [10]) [µg/mL] | MIC (Salmonella typhi) [µg/mL] | MIC (Escherichia coli [11]) [µg/mL] | MIC (Klebsiella aerogenes) [µg/mL] | further results
CO/N=C1\CCN(c2c(F)cc3c(=O)c(C(=O)O)cn(C4CC4)c3c2F)CC1CN (racemic) | 8 (≈ 19 µM) | 2 (≈ 4.76 µM) | 0.5 (≈ 1.19 µM) | 16 (≈ 38.1 µM) | 4 (≈ 9.51 µM) | 1 (≈ 2.38 µM) | 1 (≈ 2.38 µM) | 8 (≈ 19 µM) | 1 (≈ 2.38 µM) | 4 (≈ 9.51 µM) | 1 (≈ 2.38 µM) | 4 (≈ 9.51 µM) | 8 (≈ 19 µM) | 8 (≈ 19 µM) | 32 (≈ 76.1 µM) | 1 (≈ 2.38 µM) | 0.5 (≈ 1.19 µM) | 1 (≈ 2.38 µM) | > 128 | 1 (≈ 2.38 µM) | MIC (Streptococcus pyogenes): 16 µg/mL (≈ 38.1 µM); MIC (Serratia marcescens): 4 µg/mL (≈ 9.51 µM); MIC (Staphylococcus aureus [12]): 0.5 µg/mL (≈ 1.19 µM); MIC [13]: 4 µg/mL (≈ 9.51 µM)
CCO/N=C1\CCN(c2c(F)cc3c(=O)c(C(=O)O)cn(C4CC4)c3c2F)CC1CN (racemic) | 4 (≈ 9.21 µM) | 2 (≈ 4.6 µM) | 0.25 (≈ 0.575 µM) | 32 (≈ 73.7 µM) | 2 (≈ 4.6 µM) | 0.5 (≈ 1.15 µM) | 2 (≈ 4.6 µM) | 16 (≈ 36.8 µM) | 1 (≈ 2.3 µM) | 2 (≈ 4.6 µM) | 4 (≈ 9.21 µM) | 4 (≈ 9.21 µM) | 8 (≈ 18.4 µM) | 8 (≈ 18.4 µM) | > 128 | 0.25 (≈ 0.575 µM) | 1 (≈ 2.3 µM) | 0.5 (≈ 1.15 µM) | > 128 | 2 (≈ 4.6 µM) | MIC (Streptococcus pyogenes): 32 µg/mL (≈ 73.7 µM); CC50 at 24 h [14]: 257 µg/mL (≈ 591 µM); MIC (Serratia marcescens): 4 µg/mL (≈ 9.21 µM); MIC (Staphylococcus aureus [12]): 0.5 µg/mL (≈ 1.15 µM); MIC [13]: 0.25 µg/mL (≈ 0.575 µM)
CO/N=C1\CCN(c2c(F)cc3c(=O)c(C(=O)O)cn(C4CC4)c3c2OC(F)F)CC1CN (racemic) | 2 (≈ 4.27 µM) | 2 (≈ 4.27 µM) | 0.125 (≈ 0.267 µM) | 32 (≈ 68.3 µM) | 1 (≈ 2.13 µM) | 16 (≈ 34.2 µM) | 1 (≈ 2.13 µM) | 8 (≈ 17.1 µM) | 1 (≈ 2.13 µM) | 4 (≈ 8.54 µM) | 4 (≈ 8.54 µM) | 4 (≈ 8.54 µM) | 4 (≈ 8.54 µM) | 4 (≈ 8.54 µM) | 2 (≈ 4.27 µM) | 0.5 (≈ 1.07 µM) | 1 (≈ 2.13 µM) | 0.5 (≈ 1.07 µM) | > 128 | 2 (≈ 4.27 µM) | MIC (Streptococcus pyogenes): 4 µg/mL (≈ 8.54 µM); CC50 at 24 h [14]: 335 µg/mL (≈ 715 µM); MIC (Serratia marcescens): 8 µg/mL (≈ 17.1 µM); MIC (Staphylococcus aureus [12]): 0.25 µg/mL (≈ 0.534 µM); MIC [13]: 0.5 µg/mL (≈ 1.07 µM)
CCO/N=C1\CCN(c2c(F)cc3c(=O)c(C(=O)O)cn(C4CC4)c3c2OC(F)F)CC1CN (racemic) | 4 (≈ 8.29 µM) | 4 (≈ 8.29 µM) | 0.25 (≈ 0.518 µM) | 64 (≈ 133 µM) | 2 (≈ 4.15 µM) | 2 (≈ 4.15 µM) | 4 (≈ 8.29 µM) | 16 (≈ 33.2 µM) | 4 (≈ 8.29 µM) | 4 (≈ 8.29 µM) | 8 (≈ 16.6 µM) | 8 (≈ 16.6 µM) | 16 (≈ 33.2 µM) | 8 (≈ 16.6 µM) | 8 (≈ 16.6 µM) | 2 (≈ 4.15 µM) | 2 (≈ 4.15 µM) | 2 (≈ 4.15 µM) | > 128 | 8 (≈ 16.6 µM) | MIC (Streptococcus pyogenes): 16 µg/mL (≈ 33.2 µM); CC50 at 24 h [14]: 203 µg/mL (≈ 421 µM); MIC (Serratia marcescens): 32 µg/mL (≈ 66.3 µM); MIC (Staphylococcus aureus [12]): 1 µg/mL (≈ 2.07 µM); MIC [13]: 2 µg/mL (≈ 4.15 µM)
CCn1cc(C(=O)O)c(=O)c2cc(F)c(N3CC/C(=N\OC)C(CN)C3)c(F)c21 (racemic) | 16 (≈ 39.2 µM) | 16 (≈ 39.2 µM) | 4 (≈ 9.79 µM) | 128 (≈ 313 µM) | 8 (≈ 19.6 µM) | 4 (≈ 9.79 µM) | 16 (≈ 39.2 µM) | 32 (≈ 78.4 µM) | 4 (≈ 9.79 µM) | 32 (≈ 78.4 µM) | 4 (≈ 9.79 µM) | 8 (≈ 19.6 µM) | 8 (≈ 19.6 µM) | 32 (≈ 78.4 µM) | > 128 | 8 (≈ 19.6 µM) | 8 (≈ 19.6 µM) | 4 (≈ 9.79 µM) | > 128 | 8 (≈ 19.6 µM) | MIC (Streptococcus pyogenes): 64 µg/mL (≈ 157 µM); CC50 at 24 h [14]: > 500 µg/mL; MIC (Serratia marcescens): 8 µg/mL (≈ 19.6 µM); MIC (Staphylococcus aureus [12]): 2 µg/mL (≈ 4.9 µM); MIC [13]: 4 µg/mL (≈ 9.79 µM)
CCO/N=C1\CCN(c2c(F)cc3c(=O)c(C(=O)O)cn(CC)c3c2F)CC1CN (racemic) | 32 (≈ 75.8 µM) | 128 (≈ 303 µM) | 4 (≈ 9.47 µM) | > 128 | 16 (≈ 37.9 µM) | 128 (≈ 303 µM) | 32 (≈ 75.8 µM) | 128 (≈ 303 µM) | 8 (≈ 18.9 µM) | 32 (≈ 75.8 µM) | 16 (≈ 37.9 µM) | 16 (≈ 37.9 µM) | 32 (≈ 75.8 µM) | 64 (≈ 152 µM) | > 128 | 8 (≈ 18.9 µM) | 8 (≈ 18.9 µM) | 8 (≈ 18.9 µM) | > 128 | 16 (≈ 37.9 µM) | MIC (Streptococcus pyogenes): 64 µg/mL (≈ 152 µM); CC50 at 24 h [14]: 410 µg/mL (≈ 969 µM); MIC (Serratia marcescens): 16 µg/mL (≈ 37.9 µM); MIC (Staphylococcus aureus [12]): 4 µg/mL (≈ 9.47 µM); MIC [13]: 8 µg/mL (≈ 18.9 µM)

Reference: ChEMBL document CHEMBL1777766, “Design, synthesis and in vitro antibacterial activity of 7-(4-alkoxyimino-3-aminomethylpiperidin-1-yl)fluoroquinolone derivatives” (Bioorg Med Chem Lett, 2011)
